Where no end group is shown, it is not given here.
system: U251MG human glioma cell attachment to TrpR-TN5 (E. coli Trp aporepressor hybrid with SRRGDMS at D/E transition); assay: Cell attachment assay on TrpR-TN5-coated wells, peptide competition; type: cell-based; details: peptide at 1 mg/ml; U251 cells
Experimental: Recombinant proteins were assessed for cell binding activity in a microtiter plate cell attachment assay. The assay is a simple and rapid means of assessing cell binding to the recombinant protein. In addition the specificity of the interaction is explored with specific inhibitor peptides, recombinant proteins and matrix proteins. Finally, the assay is used to screen a variety of cell lines to determine the range of cell types capable of interacting with the recombinant protein.
The assay used was a modification of one widely used in the field. See Bourdon et al., J. Cell Biol., 108:1149-1155 (1989). […] Nonspecific sites on the well were blocked with BSA. Human tumor cells, U251MG-human glioma or MG63-human sarcoma having the receptor which binds the SRRGDMS receptor binding site with or without inhibitor were added and allowed to adhere for 30 to 90 minutes at 37° C. Following the maintenance period, non-adherent cells were washed out and relative numbers of adherent cells were determined. The assay can detect binding interactions in the absence of extensive cell spreading.
In the cell attachment assay, the attached cells stained with Di-I a vital fluorescent dye which intercalates in cell membranes. The advantages of this form of cell tagging are that cells can be rapidly labeled, the label remains cell bound, it is not radioactive, and it is easily detected in a fluorescence plate reader.
Specificity of cell attachment was then determined in competition assays of cell attachment using SRRGDMS or GRGDSP peptides as competitive inhibitors of recombinant protein cell attachment. In the presence of 1 mg/ml SRRGDMS peptide, the specific attachment of U251MG cells to either fusion protein was inhibited as shown in FIG. 3.

| Substance | inhibition of cell attachment to TrpR-TN5 |
| --- | --- |
| GRGDSP (GRGDSP-NH2) | inhibited |
| SRRGDMS (SRRGDMS-NH2) | inhibited |
| MGSRSRD | did not inhibit |

— patent US5190873A, “Hybrid tryptophan aporepressor containing ligand binding sites” (California Institute of Biological Research, priority 1991, dated 1993)
